Laboratory results reported in patent US9163066B2, “Antimicrobial lytic peptides” (priority 2010, dated 2015).
Where two headings read alike, the source gives them in different places.

Key:
[1] = test system: Aspergillus flavus; test: Antimicrobial activity against pathogens (MIC80 / MBC100); assay type: cell-based
Description: (§1) A comparison of antimicrobial activity for these two naturally occurring peptides against various pathogens (combined fungal and bacterial) is summarized below

[2] = test system: Aspergillus fumigatus; test: as above; assay type: cell-based; conditions: concentration necessary to kill 100%
Description: as §1

[3] = test system: Erwinia stewartii; test: as above; assay type: cell-based; conditions: concentration necessary to kill 100%
Description: as §1

[4] = test system: Fusarium moniliforme; test: as above; assay type: cell-based
Description: as §1

[5] = test system: Fusarium oxysporum; test: as above; assay type: cell-based; conditions: concentration necessary to kill 100%
Description: as §1

[6] = test system: Xanthomonas campestris; test: as above; assay type: cell-based
Description: as §1

[7] = test system: bacteria; test: Antibacterial activity of the peptides, broth microdilution MIC, mean activity (Table II); assay type: cell-based; conditions: overnight incubation (18 to 24 h)
Procedure: (§2) Minimum Inhibitory Concentration or MIC for the purpose of this invention is the lowest concentration of an antimicrobial that will inhibit the visible growth of a microorganism after overnight incubation. Minimum inhibitory concentrations are important in diagnostic laboratories to confirm resistance of microorganisms to an antimicrobial agent and also to monitor the activity of new antimicrobial agents. A MIC is generally regarded as the most basic laboratory measurement of the activity of an antimicrobial agent against an organism. MBC is defined as the lowest concentration of an antimicrobial agent needed to kill 99.9% of the initial organism inoculum. Presently, specific guidelines for interpretation are not available; therefore, a clinician knowledgeable in both bactericidal testing and infectious diseases should be available to interpret the results.
(§3) MICs were determined by the broth microdilution method described by the National Committee for Clinical Laboratory Standards (17). Serial twofold dilutions of each peptide solution were prepared (final volume, […]) in microtiter trays with appropriate medium. Each dilution series included control wells containing bacteria without peptide. A total of […] of the adjusted inoculum (100,000 organisms) was added to each well, and then the trays were incubated at
(§4) in ambient air overnight (18 to 24 h). The MIC of each peptide for each isolate was read as the lowest concentration of peptide that inhibited visible growth of the organism.
The above in vitro tests and analyses were conducted on a set of designed peptides of the present invention; and, for comparative purposes, naturally derived molecules.

[8] = test system: red blood cells (erythrocytes); test: Hemolytic activity of the peptides (hemoglobin release, absorbance at 412 nm); assay type: cell-based
Procedure: Hemolysis as defined herein is an in vitro assay where the compounds tendency to lyse red blood cells is determined. Presumably, the compounds that are less hemolytic will be less toxic in vivo. Increasing amounts of compound are added to solutions containing red blood cells and left for a specified time and then lysis is determined spectrophotometrically by measuring hemoglobin release.
A small volume of a suspension of erythrocytes (about 100 million) is kept on ice with a specific amount of lytic peptide. The cells are then placed in a 37° C. water bath for 10 min, vortexed and centrifuged at 1000 g for 2 min. The supernatant was removed and the amount of hemoglobin that was released was determined by the samples' absorbance at 412 nm. Control values without added peptide were subtracted from the absorbance readings.
The numerical difference between the value of the mean of hemolysis and the mean of the activity is a useful way to determine those peptides having the most desired activity.

[9] = test system: pathogens of cotton, poplar and pome fruits such as pears and apples; conditions: tested by a number of labs throughout the world; cited from earlier work
[10] = test system: Sinorhizobium; test: MIC by broth microdilution; assay type: cell-based; set-up: unit not given here
Procedure: as §2, §3, §4

[11] = test system: Xanthomonas; test: MIC by broth microdilution; assay type: cell-based; set-up: unit not given here
Procedure: as §2, §3, §4

[12] = test system: agrobacterium; test: MIC by broth microdilution; assay type: cell-based; set-up: unit not given here
Procedure: as §2, §3, §4

[13] = test system: agrobacterium, Sinorhizobium, Xanthomonas; test: MIC by broth microdilution, mean over B1-B3; assay type: cell-based; conditions: mean of MIC for B1, B2, B3
Procedure: as §2, §3, §4

[14] = test system: angiogenesis; conditions: known activity, seen as a safety problem for humans; cited from earlier work
[15] = concentration necessary to kill 100%
[16] = concentration of TP necessary to limit growth by 80%

| Sequence | MIC for B2 [10] | MIC for B3 [11] | MIC for B1 [12] | Mean [13] | other results |
| --- | --- | --- | --- | --- | --- |
| FKLRAKIKVRLRAKIKL [D4E1, D4E1 (AgroMed), earlier synthetic lytic peptide tested by a number of labs] |  |  |  |  | D4E1 MBC100 ([1]; concentration of D4E1 necessary to kill 100% of the pathogens): 12 µM; D4E1 MBC100 [2]: 12 µM; D4E1 MBC100 [3]: 1 µM; D4E1 MBC100 [4, 15]: 3 µM; D4E1 MBC100 [5]: 3 µM; D4E1 MBC100 [6, 15]: 2 µM; Mean Activity [7]: 0.77 µM; Mean of Hemolysis [8]: 3.6 µM; efficacy in limiting plant pathogens [9]: efficacious in limiting pathogens of cotton, poplar and pome fruits |
| KAFKKAFKKFKKACFKGLCAKKFKKFAKKFAK [AGM 183] | 0.3 | 1 | 3 | 1.44 |  |
| KARLKFCFKGLCIKIKVR [AGM 181] | 0.3 | 1 | 1 | 0.77 |  |
| KFAKKFKKFAKKFCFKGLCAFKKAFKKFKKAF [AGM 184] | 0.3 | 1 | 1 | 0.77 |  |
| KIKARLCLGKFCIKARLK [AGM 182] | 0.3 | 1 | 1 | 0.77 |  |
| KWCFRVCYRGICYRRCR [TP, defensin-like peptide found in the hemolymph of the horseshoe crab] |  |  |  |  | TP MIC80 [1, 16]: 34 µM; TP MIC80 [4, 16]: 21 µM; TP MIC80 [6, 16]: 0.77 µM; Mean Activity [7]: 0.3 µM; Mean of Hemolysis ([8]; erythrocytes, 37° C. for 10 min): 3 µM |
| RRRPRPPYLPRPRPPPFFPPRLPPRIPPGFPPRFPPRFP [PR39, antimicrobial peptide found in swine] |  |  |  |  | activities in mammals [14]: stimulation of angiogenesis |
